Data as given in patent publication US10370343B2, “[6,6] Fused bicyclic HDAC8 inhibitors” (FORMA Therapeutics, Inc., priority 2015, dated 2019).

These compounds were tested against T1, Recombinant N-terminal GST tag full-length human HDAC8 (Homo sapiens, UniProt Q9BY41) (assay: HDAC8 probe binding assay, time resolved fluorescence (TRF) format). Conditions: compounds grouped by IC50 range (Table 2).
T1 construct: Recombinant N-terminal GST tag full-length human HDAC8; purchased SignalChem H90-30G-1000; host or cells: baculovirus in Sf9 insect cells
T1 sequence (Q9BY41 1-377): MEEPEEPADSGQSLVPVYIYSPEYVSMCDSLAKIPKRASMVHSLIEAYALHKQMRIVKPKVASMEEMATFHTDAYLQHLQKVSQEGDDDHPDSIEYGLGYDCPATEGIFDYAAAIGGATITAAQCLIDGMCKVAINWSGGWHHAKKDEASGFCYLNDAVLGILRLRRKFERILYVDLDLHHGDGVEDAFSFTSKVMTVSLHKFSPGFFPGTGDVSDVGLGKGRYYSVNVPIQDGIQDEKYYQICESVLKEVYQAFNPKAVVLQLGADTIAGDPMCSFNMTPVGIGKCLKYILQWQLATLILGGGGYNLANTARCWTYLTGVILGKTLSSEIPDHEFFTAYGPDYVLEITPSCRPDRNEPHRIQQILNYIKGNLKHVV
Summary of the method: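 Probe-binding TRF assay using full-length N-GST human HDAC8 expressed in baculovirus-infected Sf9 cells, incubated 16 h at room temperature and read at 340 nm excitation, 485/535 nm emission. Percent inhibition was normalised to no-enzyme and DMSO controls. IC50 was obtained by 4-parameter logistic fit.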

| Structure (SMILES) | IC50 |
| --- | --- |
| O=C(NO)c1ccc2c(c1)N(Cc1ncc(-c3ccccc3)o1)C(=O)CO2 [Compound I-191, N-hydroxy-3-oxo-4-((5-phenyloxazol-2-yl)methyl)-3,4-dihydro-2H-benzo[b][1,4]oxazine-6-carboxamide] | ≤ 25 nM |
| O=C(NO)c1ccc2c(c1)N(Cc1ccc(Cl)c(F)c1)C(=O)CO2 [Compound I-346, 4-(4-chloro-3-fluorobenzyl)-N-hydroxy-3-oxo-3,4-dihydro-2H-benzo[b][1,4]oxazine-6-carboxamide] | ≤ 25 nM |
| CN(C)S(=O)(=O)c1ccc(CN2C(=O)COc3ccc(C(=O)NO)cc32)cc1 [Compound I-189, 4-(4-(N,N-dimethylsulfamoyl)benzyl)-N-hydroxy-3-oxo-3,4-dihydro-2H-benzo[b][1,4]oxazine-6-carboxamide] | ≤ 25 nM |
| O=C(NO)c1ccc2c(c1)N(Cc1ccc(C(=O)N3CCCCC3)cc1)C(=O)CO2 [Compound I-150, N-hydroxy-3-oxo-4-(4-(piperidine-1-carbonyl)benzyl)-3,4-dihydro-2H-benzo[b][1,4]oxazine-6-carboxamide] | 25 to 100 nM |
| O=C(NO)c1ccc2c(c1)N(Cc1ccc3ncccc3c1)C(=O)CO2 [Compound I-231, N-hydroxy-3-oxo-4-(quinolin-6-ylmethyl)-3,4-dihydro-2H-benzo[b][1,4]oxazine-6-carboxamide] | ≤ 25 nM |
| O=C(NO)c1ccc2c(c1)N(Cc1ccc(OC3CCC3)cc1)C(=O)CO2 [Compound I-331, 4-(4-cyclobutoxybenzyl)-N-hydroxy-3-oxo-3,4-dihydro-2H-benzo[b][1,4]oxazine-6-carboxamide] | ≤ 25 nM |
| O=C(NO)c1ccc2c(c1)N(Cc1cc(Cl)ccc1F)C(=O)CO2 [Compound I-348, 4-(5-chloro-2-fluorobenzyl)-N-hydroxy-3-oxo-3,4-dihydro-2H-benzo[b][1,4]oxazine-6-carboxamide] | ≤ 25 nM |
| COc1ccc(CN2CC(C(=O)N(C)C)Oc3ccc(C(=O)NO)cc32)cc1 (stereo not drawn) [Compound I-169, N6-hydroxy-4-(4-methoxybenzyl)-N2,N2-dimethyl-3,4-dihydro-2H-benzo[b][1,4]oxazine-2,6-dicarboxamide] | 25 to 100 nM |
| CN1CCCc2cc(CN3C(=O)COc4ccc(C(=O)NO)cc43)ccc21 [Compound I-182, N-hydroxy-4-((1-methyl-1,2,3,4-tetrahydroquinolin-6-yl)methyl)-3-oxo-3,4-dihydro-2H-benzo[b][1,4]oxazine-6-carboxamide] | 25 to 100 nM |
| O=C(NO)c1ccc2c(c1)N(Cc1ccc3ccccc3n1)C(=O)CO2 [Compound I-232, N-hydroxy-3-oxo-4-(quinolin-2-ylmethyl)-3,4-dihydro-2H-benzo[b][1,4]oxazine-6-carboxamide] | ≤ 25 nM |
| N#Cc1ccc(CN2C(=O)COc3ccc(C(=O)NO)cc32)c(Cl)c1 [Compound I-372, 4-(2-chloro-4-cyanobenzyl)-N-hydroxy-3-oxo-3,4-dihydro-2H-benzo[b][1,4]oxazine-6-carboxamide] | ≤ 25 nM |
| Cc1cc2oc(CN3C(=O)COc4ccc(C(=O)NO)cc43)nc2cc1Cl [Compound I-261, 4-((5-chloro-6-methylbenzo[d]oxazol-2-yl)methyl)-N-hydroxy-3-oxo-3,4-dihydro-2H-benzo[b][1,4]oxazine-6-carboxamide] | ≤ 25 nM |
| O=C(NO)c1ccc2c(c1)N(Cc1nc3cc(C(F)(F)F)ccc3o1)C(=O)CO2 [Compound I-234, N-hydroxy-3-oxo-4-((5-(trifluoromethyl)benzo[d]oxazol-2-yl)methyl)-3,4-dihydro-2H-benzo[b][1,4]oxazine-6-carboxamide] | ≤ 25 nM |
| O=C(NO)c1ccc2c(c1)N(Cc1ccc(C(F)(F)F)cc1Cl)C(=O)CO2 [Compound I-356, 4-(2-chloro-4-(trifluoromethyl)benzyl)-N-hydroxy-3-oxo-3,4-dihydro-2H-benzo[b][1,4]oxazine-6-carboxamide] | ≤ 25 nM |

Next, values leading:

| IC50 | Structure (SMILES) |
| --- | --- |
| ≤ 25 nM | Cc1ccc2nc(CN3C(=O)COc4ccc(C(=O)NO)cc43)sc2n1 [Compound I-210, N-hydroxy-4-((5-methylthiazolo[5,4-b]pyridin-2-yl)methyl)-3-oxo-3,4-dihydro-2H-benzo[b][1,4]oxazine-6-carboxamide] |
| ≤ 25 nM | O=C(NO)c1ccc2c(c1)N(Cc1nc3cc(Cl)cnc3s1)C(=O)CO2 [Compound I-209, 4-((6-chlorothiazolo[5,4-b]pyridin-2-yl)methyl)-N-hydroxy-3-oxo-3,4-dihydro-2H-benzo[b][1,4]oxazine-6-carboxamide] |
| ≤ 25 nM | O=C(NO)c1ccc2c(c1)N(Cc1ccc(-n3ccnc3)cc1)C(=O)CO2 [Compound I-187, 4-(4-(1H-imidazol-1-yl)benzyl)-N-hydroxy-3-oxo-3,4-dihydro-2H-benzo[b][1,4]oxazine-6-carboxamide] |
| ≤ 25 nM | O=C(NO)c1ccc2c(c1)N(Cc1cc(F)ccc1Cl)C(=O)CO2 [Compound I-352, 4-(2-chloro-5-fluorobenzyl)-N-hydroxy-3-oxo-3,4-dihydro-2H-benzo[b][1,4]oxazine-6-carboxamide] |
| 25 to 100 nM | O=C(NO)c1ccc2c(c1)N(Cc1cnn(C3CC3)c1)C(=O)CO2 [Compound I-206, 4-((1-cyclopropyl-1H-pyrazol-4-yl)methyl)-N-hydroxy-3-oxo-3,4-dihydro-2H-benzo[b][1,4]oxazine-6-carboxamide] |
| ≤ 25 nM | O=C(NO)c1ccc2c(c1)N(Cc1cc(F)cc(Cl)c1)C(=O)CO2 [Compound I-343, 4-(3-chloro-5-fluorobenzyl)-N-hydroxy-3-oxo-3,4-dihydro-2H-benzo[b][1,4]oxazine-6-carboxamide] |
| ≤ 25 nM | COc1ccc(F)c(CN2C(=O)COc3ccc(C(=O)NO)cc32)c1 [Compound I-371, 4-(2-fluoro-5-methoxybenzyl)-N-hydroxy-3-oxo-3,4-dihydro-2H-benzo[b][1,4]oxazine-6-carboxamide] |
| 25 to 100 nM | Cc1ccc2nc(CN3C(=O)COc4ccc(C(=O)NO)cc43)cn2c1 [Compound I-365, N-hydroxy-4-((6-methylimidazo[1,2-a]pyridin-2-yl)methyl)-3-oxo-3,4-dihydro-2H-benzo[b][1,4]oxazine-6-carboxamide] |
| ≤ 25 nM | CN(C)c1ccc(CN2C(=O)COc3ccc(C(=O)NO)cc32)cc1 [Compound I-361, 4-(4-(dimethylamino)benzyl)-N-hydroxy-3-oxo-3,4-dihydro-2H-benzo[b][1,4]oxazine-6-carboxamide] |
| 25 to 100 nM | CC1(C)Oc2ccc(C(=O)NO)cc2N(Cc2ccc(Cl)c(Cl)c2)C1=O [Compound I-312, 4-(3,4-dichlorobenzyl)-N-hydroxy-2,2-dimethyl-3-oxo-3,4-dihydro-2H-benzo[b][1,4]oxazine-6-carboxamide] |
| 25 to 100 nM | O=C(NO)c1ccc2c(c1)N(Cc1ccncc1)C(=O)CO2 [Compound I-215, N-hydroxy-3-oxo-4-(pyridin-4-ylmethyl)-3,4-dihydro-2H-benzo[b][1,4]oxazine-6-carboxamide] |
| ≤ 25 nM | CC1(C)Oc2ccc(C(=O)NO)cc2N(Cc2ccc(C(F)(F)F)cc2F)C1=O [Compound I-321, 4-(2-fluoro-4-(trifluoromethyl)benzyl)-N-hydroxy-2,2-dimethyl-3-oxo-3,4-dihydro-2H-benzo[b][1,4]oxazine-6-carboxamide] |
| ≤ 25 nM | COc1ccc(CN2C(=O)COc3ccc(C(=O)NO)cc32)c(F)c1 [Compound I-341, 4-(2-fluoro-4-methoxybenzyl)-N-hydroxy-3-oxo-3,4-dihydro-2H-benzo[b][1,4]oxazine-6-carboxamide] |
